ChEMBL document CHEMBL1147380, “Studies on the acetogenins of Formosan annonaceous plants. II. Cytotoxic acetogenins from Annona reticulata” (1993)
Converted amounts (≈) assume the structure as drawn.

Legend:
Format in all cases: functional
[1] = system: P388; test: Cytotoxicity against mouse P388 cells; conditions: for EC50: Mus musculus, P388, read-out: ED50 (the source's name)
[2] = system: HT-29; test: Cytotoxicity against human HT-29 cells; conditions: for EC50: Homo sapiens, HT-29, read-out: ED50 (the source's name)
[3] = system: KB; test: Cytotoxicity against human KB cells; conditions: for EC50: Homo sapiens, KB, read-out: ED50 (the source's name)
[4] = system: A549; test: Cytotoxicity against human A549 cells; conditions: for EC50: Homo sapiens, A549, read-out: ED50 (the source's name)
[5] = system: MCF7; test: Cytotoxicity against human MCF7 cells; conditions: for EC50: Homo sapiens, MCF7, read-out: ED50 (the source's name)

| Compound | EC50 [1] [µg/mL] | EC50 [2] [µg/mL] | EC50 [3] [µg/mL] | EC50 [4] [µg/mL] | further results |
| --- | --- | --- | --- | --- | --- |
| CCCCCCCCCCCC[C@H](O)[C@@H]1CC[C@@H]([C@@H](O)CCCCCC(=O)CCCCC(O)CC2=CC(C)OC2=O)O1 (some centres not stated) | 0.2 (≈ 0.336 µM) | 1.32 (≈ 2.22 µM) | 4.66 (≈ 7.83 µM) | 0.01 (≈ 0.0168 µM) |  |
| CCCCCCCCCC[C@@H](O)[C@@H]1CC[C@@H]([C@@H]2CC[C@@H]([C@H](O)CCCCCCCCCC(O)CC3=CC(C)OC3=O)O2)O1 (stereo in doubt; 7) [BULLATACIN] |  |  | 10 (≈ 16.4 µM) | 0.001 (≈ 0.00164 µM) |  |
| CCCCCCCCCC[C@@H](O)[C@@H]1CC[C@@H]([C@@H]2CC[C@@H]([C@H](O)CCCCCCCCCC(O)CC3=CC(C)OC3=O)O2)O1 (stereo in doubt; 13) [BULLATACIN] |  |  |  |  | ED50 [5]: <1 ×10⁻⁵ ug/ml; ED50 [2]: <1 ×10⁻³ ug/ml; ED50 [4]: <1 ×10⁻⁵ ug/ml |
| CCCCCCCCCCCC[C@H](O)[C@@H]1CC[C@@H]([C@@H](O)CC(O)CCCCC(O)CCCC(O)CC2=CC(C)OC2=O)O1 (some centres not stated) [ANNOMONICIN] | 0.24 (≈ 0.392 µM) |  | 2.29 (≈ 3.74 µM) |  |  |
| CCCCCCCCCCCC[C@@H](O)[C@H]1CC[C@H]([C@H](O)CCCCC(=O)CCCCC[C@@H](O)CC2=C[C@H](C)OC2=O)O1 [ANNONACINONE] |  | 1 (≈ 1.68 µM) | 0.01 (≈ 0.0168 µM) | 0.1 (≈ 0.168 µM) | ED50 [1]: 1 ×10⁻⁶ ug/ml |
| CCCCCCCCCCCC[C@@H](O)[C@H]1CC[C@H]([C@H](O)CCCC[C@H](O)CCCCC[C@@H](O)CC2=CC(C)OC2=O)O1 (some centres not stated) [ANNONACIN] |  | 3 (≈ 5.03 µM) |  | 0.001 (≈ 0.00168 µM) | ED50 [1]: 1 ×10⁻⁵ ug/ml; ED50 [3]: 1 ×10⁻⁴ ug/ml |
| CCCCCCCCCCCC[C@H](O)[C@@H]1CC[C@@H]([C@@H](O)CCCCCC(O)CCCCC(O)CC2=CC(C)OC2=O)O1 (some centres not stated) [ANNORETICUIN] | 1 (≈ 1.68 µM) | 2.28 (≈ 3.82 µM) | 3.37 (≈ 5.65 µM) | 0.4 (≈ 0.67 µM) |  |
| CCCCCCCCCCCC[C@H](O)[C@@H]1CC[C@@H]([C@@H](O)CCCCC(=O)CCCCCC2CC(CC(C)=O)C(=O)O2)O1 (some centres not stated) [ISOANNONACINONE] | 0.5 (≈ 0.841 µM) | 0.009 (≈ 0.0151 µM) |  | 0.07 (≈ 0.118 µM) |  |
| CCCCCCCCCCCC[C@H](O)[C@@H]1CC[C@@H]([C@@H](O)CCCCC(O)CCCCCC2CC(CC(C)=O)C(=O)O2)O1 (some centres not stated) [ISOANNONACIN] | 3 (≈ 5.03 µM) | 0.002 (≈ 0.00335 µM) |  | 0.02 (≈ 0.0335 µM) |  |
| CCCCCCCCCCCC[C@H](O)[C@@H]1CC[C@@H]([C@@H](O)CCCCCC(O)CCCCC2CC(CC(C)=O)C(=O)O2)O1 (some centres not stated) [ISOANNORETICUIN] | 3.6 (≈ 6.03 µM) | 3.06 (≈ 5.13 µM) | 6.96 (≈ 11.7 µM) | 0.4 (≈ 0.67 µM) |  |
| CCCCCCCCCCCC[C@@H](O)[C@H]1CC[C@H]([C@H](O)CCCCCCCCCCCCC2=C[C@H](C)OC2=O)O1 [REL-SOLAMIN] | 0.04 (≈ 0.0708 µM) |  | 0.3 (≈ 0.531 µM) |  |  |
| CCCCCCCCCCCC[C@H](O)[C@@H]1CC[C@@H]([C@@H](O)CCCCCCCCCCCCCCC2=CC(C)OC2=O)O1 (some centres not stated) [RETICULATACIN] |  | 4.66 (≈ 7.86 µM) |  | 3.49 (≈ 5.89 µM) | EC50 [5]: 2.91 µg/mL (≈ 4.91 µM) |
| CCCCCCCCCCCC[C@H](O)[C@@H]1CC[C@@H]([C@@H](O)CCCCCC(=O)CCCCC2CC(CC(C)=O)C(=O)O2)O1 (some centres not stated) [SQUAMONE] | 5.6 (≈ 9.41 µM) |  | 1.5 (≈ 2.52 µM) | 1.34 (≈ 2.25 µM) | EC50 [5]: 2.14 µg/mL (≈ 3.6 µM) |
